In brackets after ≈: the same amount, converted by molar mass. Read-outs that look alike come from different tables or passages of the source.
Experiments:
Assay in all cases: Serum MIC, broth micro-dilution
Assay type in all cases: cell-based
[1] = test system: Klebsiella pneumoniae ATCC 700603; details: Klebsiella pneumoniae
Summary of the method: (§1)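 CLSI broth microdilution in 50% cation-adjusted Mueller Hinton II broth plus 50% mouse serum. Inoculum at final OD600 0.0005. Two-fold serial dilutions (10 concentrations) starting at 64, 4, 0.5 or 0.13 μg/mL. Incubated 22 h at 35 °C.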

[2] = test system: Escherichia coli strain ATCC 25922; details: Escherichia coli, read-out: E. coli 25922 Serum MIC
Summary of the method: as §1

[3] = test system: Acinetobacter baumannii ATCC 17978; details: Acinetobacter baumannii
Summary of the method: as §1

[4] = test system: Pseudomonas aeruginosa PA01; details: Pseudomonas aeruginosa, read-out: P. aeruginosa 01 Serum MIC
Summary of the method: as §1

[5] = ATCC700603, 50% v/v mouse serum in Mueller Hinton II cation adjusted Broth, 35° C., 22 hours, Table 4, read-out: K pneumoniae 700603 Serum MIC
[6] = ATCC25922, 50% v/v mouse serum in Mueller Hinton II cation adjusted Broth, 35° C., 22 hours, Table 4
[7] = ATCC17978, 50% v/v mouse serum in Mueller Hinton II cation adjusted Broth, 35° C., 22 hours, Table 4, read-out: A. baumanii 17978 Serum MIC
[8] = ATCC17978, 50% v/v mouse serum in Mueller Hinton II cation adjusted Broth, 35° C., 22 hours, Table 5, read-out: Acinetobacter baumanii 17978 Serum MIC
[9] = PA01, 50% v/v mouse serum in Mueller Hinton II cation adjusted Broth, 35° C., 22 hours, Table 4
[10] = ATCC700603, 50% v/v mouse serum, compounds of Table 1, Table 7, read-out: K. pneumoniae 700603 Serum MIC
[11] = ATCC25922, 50% v/v mouse serum, compounds of Table 1, Table 7
[12] = ATCC17978, 50% v/v mouse serum, compounds of Table 1, Table 7, read-out: A. baumanii 17978 Serum MIC
[13] = PA01, 50% v/v mouse serum, compounds of Table 1, Table 7

Row | Compound | MIC [1, 5] [µM] | MIC [2, 6] [µM] | MIC [3, 7] [µM] | MIC [3, 8] [µM] | MIC [4, 9] [µM] | MIC [1, 10] [µM] | MIC [2, 11] [µM] | MIC [3, 12] [µM] | MIC [4, 13] [µM] | other results
1 | Cc1nc(-c2ccc(OCCC(C)(C)C)cc2)nc(N)c1C(=O)N[C@@H](CNS(N)(=O)=O)C(=O)N(C)[C@@H]1C(=O)N[C@@H](C)C(=O)N[C@H](C(=O)O)Cc2ccc(OC[C@H](O)CN)c(c2)-c2cc1cc(OC[C@H](O)CN)c2O [Example 3, (8S,11S,14S)-18-hydroxy-11-methyl-14-[methyl-[(2S)-2-[[4-amino-2-[4-(3,3-dimethylbutoxy)-phenyl]-6-methyl-pyrimidine-5-carbonyl]amino]-3-(sulfamoylamino)-propanoyl]amino]-10,13-dioxo-3,17-bis[(2R)-3-amino-2-hydroxy-propoxy]-9,12-diazatricyclo-[13.3.1.12,6]icosa-1(18),2(20),3,5,15(19), 16-hexaene-8-carboxylic acid] | 0.5 (≈ 0.526 µg/mL) | 0.5 (≈ 0.526 µg/mL) | 12 (≈ 12.6 µg/mL) | 12 (≈ 12.6 µg/mL) | 4 (≈ 4.21 µg/mL) | – | – | – | – | –
2 | Cc1nc(-c2ccc(OC(C)C)cc2)ncc1C(=O)N[C@@H](CNS(N)(=O)=O)C(=O)N(C)[C@@H]1C(=O)N[C@@H](C)C(=O)N[C@H](C(=O)O)Cc2ccc(OC[C@H](O)CN)c(c2)-c2cc1cc(OC[C@H](O)CN)c2O [Example 14, (8S,11S,14S)-18-hydroxy-11-methyl-14-[methyl-[(2S)-2-[[2-(4-isopropoxy-phenyl)-4-methyl-pyrimidine-5-carbonyl]amino]-3-(sulfamoylamino)-propanoyl]amino]-10,13-dioxo-3,17-bis[(2R)-3-amino-2-hydroxy-propoxy]-9,12-diazatricyclo-[13.3.1.12,6]icosa-1(18),2(20),3,5,15(19), 16-hexaene-8-carboxylic acid] | – | – | – | – | – | – | – | – | – | MIC ([1]; ATCC700603, 22 h, read-out: K pneumoniae 700603 Serum MIC): 2 µM (≈ 1.99 µg/mL); MIC ([2]; ATCC25922, 22 h): 1.5 µM (≈ 1.49 µg/mL); MIC ([3]; ATCC17978, 22 h, read-out: A. baumanii 17978 Serum MIC): 32 µM (≈ 31.8 µg/mL); MIC ([3]; ATCC17978, 22 h, read-out: Acinetobacter baumanii 17978 Serum MIC): 32 µM (≈ 31.8 µg/mL); MIC ([4]; PA01, 22 h): 48 µM (≈ 47.8 µg/mL)
3 | CCCCCOc1ccc(-c2nc(C)c(C(=O)N[C@@H](CCN)C(=O)N(C)[C@@H]3C(=O)N[C@@H](C)C(=O)N[C@H](C(=O)O)Cc4ccc(O)c(c4)-c4cc3ccc4OCCN)c(C)n2)cc1 (racemic) [Example 648] | – | – | – | – | – | 1.3 (≈ 1.11 µg/mL) | 0.6 (≈ 0.512 µg/mL) | > 96 | > 128 | –
4 | Cc1nc(-c2ccc(C(C)(C)C)cc2)ncc1C(=O)N[C@@H](CCN)C(=O)N(C)[C@@H]1C(=O)N[C@@H](C)C(=O)N[C@H](C(=O)O)Cc2ccc(OCCN)c(c2)-c2cc1ccc2OCCN (racemic) [Example 640] | – | – | – | – | – | 0.75 (≈ 0.639 µg/mL) | 0.5 (≈ 0.426 µg/mL) | 64 (≈ 54.5 µg/mL) | 64 (≈ 54.5 µg/mL) | –
5 | CCCCCOc1ccc(-c2nc(C)c(C(=O)N[C@@H](CCN)C(=O)N(C)[C@@H]3C(=O)N[C@@H](C)C(=O)N[C@H](C(=O)O)Cc4ccc(OCCN)c(c4)-c4cc3ccc4O)c(C)n2)cc1 (racemic) [Example 642] | – | – | – | – | – | 1.1 (≈ 0.938 µg/mL) | 25 (≈ 21.3 µg/mL) | 71 (≈ 60.6 µg/mL) | 53 (≈ 45.2 µg/mL) | –
6 | COc1c(OC[C@H](O)CN)cc2cc1-c1cc(ccc1OC[C@H](O)CN)C[C@@H](C(=O)NCC#N)NC(=O)[C@H](C)NC(=O)[C@H]2N(C)C(=O)[C@H](CCN)NC(=O)c1c(C)nc(-c2ccc(C(C)(C)C)cc2)nc1C (racemic) [Example 586] | – | – | – | – | – | 0.094 (≈ 0.0935 µg/mL) | 0.094 (≈ 0.0935 µg/mL) | 2 (≈ 1.99 µg/mL) | 2 (≈ 1.99 µg/mL) | –

Continued, in another order:

Row | MIC [1, 5] [µM] | MIC [2, 6] [µM] | MIC [3, 7] [µM] | MIC [3, 8] [µM] | MIC [4, 9] [µM] | MIC [1, 10] [µM] | MIC [2, 11] [µM] | MIC [3, 12] [µM] | MIC [4, 13] [µM] | Compound | other results
7 | 0.75 (≈ 0.755 µg/mL) | 0.5 (≈ 0.503 µg/mL) | 16 (≈ 16.1 µg/mL) | 16 (≈ 16.1 µg/mL) | 12 (≈ 12.1 µg/mL) | – | – | – | – | Cc1nc(-c2ccc(CC3CC3)cc2)nc(N)c1C(=O)N[C@@H](CNS(N)(=O)=O)C(=O)N(C)[C@@H]1C(=O)N[C@@H](C)C(=O)N[C@H](C(=O)O)Cc2ccc(OC[C@H](O)CN)c(c2)-c2cc1cc(OC[C@H](O)CN)c2O [Example 34, (8S,11S,14S)-14-[[(2S)-2-[[4-amino-2-[4-(cyclopropyl-methyl)phenyl]-6-methyl-pyrimidine-5-carbonyl]amino]-3-(sulfamoylamino)-propanoyl]-methyl-amino]-3,17-bis[(2R)-3-amino-2-hydroxy-propoxy]-18-hydroxy-11-methyl-10,13-dioxo-9,12-diazatricyclo-[13.3.1.12,6]icosa-1(18),2(20),3,5,15(19), 16-hexaene-8-carboxylic acid] | –
8 | 0.75 (≈ 0.686 µg/mL) | 1 (≈ 0.914 µg/mL) | 32 (≈ 29.2 µg/mL) | 32 (≈ 29.2 µg/mL) | 48 (≈ 43.9 µg/mL) | – | – | – | – | Cc1nc(-c2ccc(C(C)(C)C)cc2)ncc1C(=O)N[C@@H](CN)C(=O)N(C)[C@@H]1C(=O)N[C@@H](C)C(=O)N[C@H](C(=O)O)Cc2ccc(OC[C@H](O)CN)c(c2)-c2cc1cc(OC[C@H](O)CN)c2O [Example 31, (8S,11S,14S)-18-hydroxy-11-methyl-14-[methyl-[(2S)-3-amino-2-[[2-(4-tert-butylphenyl)-4-methyl-pyrimidine-5-carbonyl]amino]-propanoyl]amino]-10,13-dioxo-3,17-bis[(2R)-3-amino-2-hydroxy-propoxy]-9,12-diazatricyclo-[13.3.1.12,6]icosa-1(18),2(20),3,5,15(19), 16-hexaene-8-carboxylic acid] | –
9 | 1 (≈ 1.03 µg/mL) | 0.5 (≈ 0.515 µg/mL) | 32 (≈ 32.9 µg/mL) | 32 (≈ 32.9 µg/mL) | 32 (≈ 32.9 µg/mL) | – | – | – | – | Cc1nc(-c2ccc(C(F)(F)C(C)C)cc2)ncc1C(=O)N[C@@H](CNS(N)(=O)=O)C(=O)N(C)[C@@H]1C(=O)N[C@@H](C)C(=O)N[C@H](C(=O)O)Cc2ccc(OC[C@H](O)CN)c(c2)-c2cc1cc(OC[C@H](O)CN)c2O [Example 10, (8S,11S,14S)-18-hydroxy-11-methyl-14-[methyl-[(2S)-2-[[2-[4-(1,1-difluoro-2-methyl-propyl)-phenyl]-4-methyl-pyrimidine-5-carbonyl]amino]-3-(sulfamoylamino)-propanoyl]amino]-10,13-dioxo-3,17-bis[(2R)-3-amino-2-hydroxy-propoxy]-9,12-diazatricyclo-[13.3.1.12,6]icosa-1(18),2(20),3,5,13(19), 16-hexaene-8-carboxylic acid] | –
10 | 1 (≈ 1.02 µg/mL) | 1 (≈ 1.02 µg/mL) | 16 (≈ 16.4 µg/mL) | 16 (≈ 16.4 µg/mL) | 4 (≈ 4.09 µg/mL) | – | – | – | – | Cc1cc(C(C)(C)C)ccc1-c1nc(C)c(C(=O)N[C@@H](CNS(N)(=O)=O)C(=O)N(C)[C@@H]2C(=O)N[C@@H](C)C(=O)N[C@H](C(=O)O)Cc3ccc(OC[C@H](O)CN)c(c3)-c3cc2cc(OC[C@H](O)CN)c3O)c(N)n1 [Example 59, (8S,11S,14S)-14-[[(2S)-2-[[4-amino-2-(4-tert-butyl-2-methyl-phenyl)-6-methyl-pyrimidine-5-carbonyl]amino]-3-(sulfamoylamino)-propanoyl]-methyl-amino]-3,17-bis[(2R)-3-amino-2-hydroxy-propoxy]-18-hydroxy-11-methyl-10,13-dioxo-9,12-diazatricyclo-[13.3.1.12,6]icosa-1(18),2(20),3,5,15(19), 16-hexaene-8-carboxylic acid] | –
11 | 1 (≈ 1.04 µg/mL) | 0.75 (≈ 0.777 µg/mL) | 16 (≈ 16.6 µg/mL) | 16 (≈ 16.6 µg/mL) | 8 (≈ 8.29 µg/mL) | – | – | – | – | Cc1nc(-c2cc3c(cc2O)C(C)(C)CC3)nc(N)c1C(=O)N[C@@H](CNS(N)(=O)=O)C(=O)N(C)[C@@H]1C(=O)N[C@@H](C)C(=O)N[C@H](C(=O)O)Cc2ccc(OC[C@H](O)CN)c(c2)-c2cc1cc(OC[C@H](O)CN)c2O [Example 57, (8S,11S,14S)-18-hydroxy-11-methyl-14-[methyl-[(2S)-2-[[4-amino-2-(6-hydroxy-1,1-dimethyl-indan-5-yl)-6-methyl-pyrimidine-5-carbonyl]amino]-3-(sulfamoylamino)-propanoyl]amino]-10,13-dioxo-3,17-bis[(2R)-3-amino-2-hydroxy-propoxy]-9,12-diazatricyclo-[13.3.1.12,6]icosa-1(18),2(20),3,5,15(19), 16-hexaene-8-carboxylic acid] | –
12 | 0.75 (≈ 0.77 µg/mL) | 0.5 (≈ 0.513 µg/mL) | 12 (≈ 12.3 µg/mL) | 12 (≈ 12.3 µg/mL) | 4 (≈ 4.1 µg/mL) | – | – | – | – | Cc1nc(-c2ccc(C(C)(C)C)c(F)c2)nc(N)c1C(=O)N[C@@H](CNS(N)(=O)=O)C(=O)N(C)[C@@H]1C(=O)N[C@@H](C)C(=O)N[C@H](C(=O)O)Cc2ccc(OC[C@H](O)CN)c(c2)-c2cc1cc(OC[C@H](O)CN)c2O [Example 60, (8S,11S,14S)-14-[[(2S)-2-[[4-amino-2-(4-tert-butyl-3-fluoro-phenyl)-6-methyl-pyrimidine-5-carbonyl]amino]-3-(sulfamoylamino)-propanoyl]-methyl-amino]-3,17-bis[(2R)-3-amino-2-hydroxy-propoxy]-18-hydroxy-11-methyl-10,13-dioxo-9,12-diazatricyclo-[13.3.1.12,6]icosa-1(18),2(20),3,5,15(19), 16-hexaene-8-carboxylic acid] | –

Reference: US11208387B2, “Macrocyclic broad spectrum antibiotics” (Genentech, Inc., priority 2019, dated 2021)
